# Measured values published in patent US7786142B2, “Heterocyclic compounds as pSTAT3/IL-6 inhibitors” (Orchid Research Laboratories, Ltd., priority 2005, dated 2010).
# “Also recorded” adds a separate entry of the source.
# Columns and labels:
# IL-6 = IL-6 in culture supernatants of NCIH 460 cells (ELISA); format: cell-based, Human
# Protocol: Human Lung Cancer cell line (NCIH 460) is used for IL-6 measurement. 5000 cells/well were seeded in a 96 well plate and incubated in CO2 incubator at 37° C. for 24 hours. After 24 hours of incubation the medium from all wells were completed removed and added 100 μl of fresh DMEM containing 10% FCS. 100 μl of different concentrations of the drug were added and incubated for 5 hours in CO2 incubator at 37° C. After 5 hours of incubation the supernatants were collected and stored at −80° C. The concentration of IL-6 in the supernatant was measured using ELISA kit and the IC50 value of the compound was determined from the dose response curve, (See Table II).
# [1] = mouse, in vivo
# Protocol: (§1) All test compound/standard drugs were delivered by gavage in a volume of 10 ml/kg. Drugs were administered every day for single time to a period of 21 days. Control mice were treated with the drug solvent/vehicle. Tumor size is measured every alternate days and body weight is recorded daily.
# (§2) • a) Tumor Volume Inhibition (TVI): A TVI value higher than 80% is indicative of active compounds. • b) T/C % is also another indicator for the activity. A reproducible 20% T/C is considered as therapeutically active. • c) Log Cell Kill (LCK): A LCK value greater than 1 is indicative of active compounds. • d) Relative Tumor Volume (RTV), Tumor Delay and % Tumor volume change are also considered as valuable additional parameters for assessment. • e) Toxic effects of drug treatment were assessed by Body Weight Loss % • f) Lethal toxicity was defined as any death in treated groups occurring before any control death. Mice were inspected daily for mortality and toxic clinical signs.
# NCI H460 Xenograft = test: In-vivo anti-cancer activity, NCI H460 xenograft model; set-up: species or system SCID mice; conditions: NCI H460 Xenograft model, in words
# Protocol: Experiments were carried out using 6-8 week old female athymic SCID (Severe Combined Immune Deficient) mice. The mice were kept in laminar flow rooms (housed in Individually Ventilated Cages) at constant temperature and humidity. They had free access to food and water. Tumors were obtained form ATCC and maintained by s.c. passages of tumor fragments (about 2×2×2 mm) in healthy mice according to standard reported procedures. Each experimental group included six/eight mice bearing bilateral tumors. Tumors were implanted on day 0, and tumor growth was followed by biweekly measurements of tumor diameters with a Vernier caliper. Tumor Volume (TV) was calculated according to the following formula: TV (mm^3)=d^2 XD/2, where d and D are the shortest diameter and the longest diameter of the tumor, respectively. The drug treatment started when tumors were just measurable (Mean TV=150-200 mm^3).
# as §1, §2
# pSTAT3 = pSTAT3 inhibition (Western blot in DU 145 / SKOV-3 cells; ELISA in HepG2 cells); format: cell-based; conditions: in words; FIGS. 1 and 2
# Protocol: Western blot analysis was performed as described by Kammer W et. al (J Biol Chem 271, 23634-23637, and J Biol Chem 273, 31222-31229). Briefly, 60 μg of whole cell extract was solubilized in Laemmeli buffer (50 mM Tris/HCl, pH 6.8, 2% SDS, 10% glycerol, 1 mM DTT, 1× Protease inhibitor cocktail, SET-3 (Calbiochem), 1 mM Sodium Ortho-vanadate) boiled for 5-10 minutes, and separated on a 10 or 12% acrylamide SDS gel. After protein transfer, the nitrocellulose membranes were blocked in blocking buffer for 2 hour (1×TBS, 0.1% Tween-20, 5% BSA). Membranes were incubated for 20 hours in blocking buffer containing, STAT3 P-Tyr705 (Santa Cruz Biotech), STAT3 (H-190, Santa Cruz Biotech) and Actin (C-2, Santa Cruz Biotech) antibody at 1:300 dilution. Detection was performed with HRP conjugated antimouse/antirabbit IgG (Santa Cruz Biotech) at a dilution of 1:3,000 for 1 hour. Visualization was performed using an Enhanced Chemiluminescence detection kit (Amersham). See Appended Diagrams: FIGS. 1 and 2. […]
# Capture Antibody was diluted to a working concentration of 2.0 μg/mL in PBS. […] The plates were made ready after 2-3 washes with wash buffer. […] The reaction was stopped by adding 50 μl of stop solution to each well and the OD was determined using a microplate reader at 450 nm.
compound,measurement,setting,value
"COc1ccc(CNC[C@H](O)COc2cccc3[nH]c4ccccc4c23)c(OC)c1 [Example 25, (2S)-1-(9H-carbazol-4-yloxy)-3-[(2,4-dimethoxybenzyl)amino]propan-2-ol]",inhibition at 0.1 µM,"IL-6; Homo sapiens, NCI-H460, 0.1 μM, NCIH 460, 5 hours",36%
same,inhibition at 1 µM,"IL-6; Homo sapiens, NCI-H460, 1 μM, NCIH 460, 5 hours",50.9%
same,IC50,"IL-6; Homo sapiens, NCI-H460, NCIH 460, 5 hours, read-out: IL-6 Inhibition IC50",780 nM
same,IL-6 inhibition,IL-6; in words,very good IL-6 inhibition
same,body weight loss,[1],no body weight loss was observed
same,in-vivo anti-cancer activity,NCI H460 Xenograft,good anti-cancer activity
same,pSTAT3 inhibition,pSTAT3,work through pSTAT3 inhibition; also recorded: operates through pSTAT3 inhibition
